Laboratory results: PubChem BioAssay (NCI)
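All cell lines were grown in 96-well plates and treated with compound for 48 hours. At the TGI there is no net growth.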

How the values were obtained:
Assay in all cases: growth of human tumour cells (NCI), 48 h
[1] = tested on: NCI-H23 lung
[2] = tested on: COLO 205 colon
[3] = tested on: CCRF-CEM leukemia
[4] = tested on: HOP-62 NSCLC
[5] = tested on: MALME-3M melanoma
[6] = tested on: NCI-H226 lung
[7] = tested on: HS 578T breast
[8] = tested on: K-562 leukemia
[9] = tested on: SN12C renal
[10] = tested on: T-47D breast
[11] = tested on: U251 CNS
[12] = tested on: UACC-62 melanoma
[13] = tested on: M14 melanoma
[14] = tested on: HCC-2998 colon
[15] = tested on: MDA-N
[16] = tested on: RPMI-8226 leukemia
[17] = tested on: SF-268 CNS
[18] = tested on: A549 NSCLC
[19] = tested on: NCI-H522 lung
[20] = tested on: SW-620 colon
[21] = tested on: BT-549 breast
[22] = tested on: PC-3 prostate
[23] = tested on: OVCAR-8 ovarian
[24] = tested on: SK-MEL-2 melanoma
[25] = tested on: CAKI-1 renal
[26] = tested on: SNB-75 CNS
[27] = tested on: SK-MEL-28 melanoma
[28] = tested on: HCT-116 colon
[29] = tested on: A498 renal
[30] = tested on: MDA-MB-231 breast
[31] = tested on: IGROV1 ovarian
[32] = tested on: HT29 colon
[33] = tested on: NCI-H460 lung
[34] = tested on: UO-31 renal
[35] = tested on: HL-60(TB) leukemia
[36] = tested on: HCT-15 colon
[37] = tested on: MOLT-4 leukemia
[38] = tested on: SK-MEL-5 melanoma
[39] = tested on: 786-0 renal
[40] = tested on: EKVX NSCLC
[41] = tested on: MCF7 breast
[42] = tested on: OVCAR-5 ovarian
[43] = tested on: SF-539 CNS
[44] = tested on: LOX IMVI melanoma
[45] = tested on: SK-OV-3 ovarian
[46] = tested on: TK-10 renal
[47] = tested on: UACC-257 melanoma
[48] = tested on: DU-145 prostate
[49] = tested on: SNB-19 CNS
[50] = tested on: NCI/ADR-RES ovarian
[51] = tested on: OVCAR-4 ovarian
[52] = tested on: OVCAR-3 ovarian
[53] = tested on: KM12 colon
[54] = tested on: MDA-MB-435
[55] = tested on: ACHN renal
[56] = tested on: RXF 393 renal
[57] = tested on: SF-295 CNS

CC(C)(CN1CCCCC1)C(/C=C/c1ccc(Cl)c(Cl)c1)=N\NC(=O)N/N=C(/C=C/c1ccc(Cl)c(Cl)c1)C(C)(C)CN1CCCCC1
TGI [1]: 3.4 µM | TGI [2]: 3.19 µM | TGI [3]: 3.45 µM | TGI [4]: 3.32 µM | TGI [5]: 2.95 µM | TGI [6]: 4.1 µM | TGI [7]: 3.39 µM | TGI [8]: 0.876 µM | TGI [9]: 3.24 µM | TGI [10]: 4.1 µM | TGI [11]: 3.13 µM | TGI [12]: 3.4 µM | TGI [13]: 1.32 µM | TGI [14]: 3.12 µM | TGI [15]: 2.75 µM | TGI [16]: 9 µM | TGI [17]: 3.15 µM | TGI [18]: 3.3 µM | TGI [19]: 3.56 µM | TGI [20]: 3.13 µM | TGI [21]: > 10 µM | TGI [22]: > 10 µM | TGI [23]: 3.38 µM | TGI [24]: > 10 µM | TGI [25]: 3.16 µM | TGI [26]: 3.12 µM | TGI [27]: 3.16 µM | TGI [28]: 2.11 µM | TGI [29]: 3.11 µM | TGI [30]: 3.71 µM | TGI [31]: 3.64 µM | TGI [32]: 1.25 µM | TGI [33]: 2.77 µM | TGI [34]: 5.56 µM | TGI [35]: 3.25 µM | TGI [36]: 2.56 µM | TGI [37]: 8.74 µM | TGI [38]: 3.5 µM | TGI [39]: 2.8 µM | TGI [40]: 3.06 µM | TGI [41]: 3.09 µM | TGI [42]: 2.97 µM | TGI [43]: 3.25 µM | TGI [44]: 2.5 µM | TGI [45]: 3.33 µM | TGI [46]: 3.08 µM | TGI [47]: 3.08 µM | TGI [48]: 3.33 µM | TGI [49]: 3.22 µM | TGI [50]: 3.32 µM | TGI [51]: 3.19 µM | TGI [52]: 2.91 µM | TGI [53]: 3.08 µM | TGI [54]: 2.57 µM | TGI [55]: 3.37 µM | TGI [56]: 1.99 µM | TGI [57]: 3.07 µM

CC(C)(C)C(=O)N(C(=S)OCc1ccccn1)c1ccccc1
TGI [1]: > 100 µM | TGI [2]: 49.6 µM | TGI [3]: 68 µM | TGI [4]: 46.8 µM | TGI [5]: 44.6 µM | TGI [6]: > 100 µM | TGI [7]: > 100 µM | TGI [8]: > 100 µM | TGI [9]: > 100 µM | TGI [10]: 63.5 µM | TGI [11]: > 100 µM | TGI [12]: > 100 µM | TGI [13]: > 100 µM | TGI [15]: > 100 µM | TGI [16]: 58.7 µM | TGI [17]: > 100 µM | TGI [20]: > 100 µM | TGI [21]: > 100 µM | TGI [22]: > 100 µM | TGI [23]: > 100 µM | TGI [24]: 70.5 µM | TGI [25]: > 100 µM | TGI [27]: > 100 µM | TGI [28]: 52.3 µM | TGI [29]: > 100 µM | TGI [30]: > 100 µM | TGI [31]: 54.3 µM | TGI [32]: > 100 µM | TGI [34]: 84.3 µM | TGI [35]: 64.8 µM | TGI [36]: 85.2 µM | TGI [37]: 62.4 µM | TGI [38]: 46.6 µM | TGI [39]: > 100 µM | TGI [40]: 57.7 µM | TGI [41]: 61.5 µM | TGI [42]: > 100 µM | TGI [43]: 46.3 µM | TGI [44]: 51.6 µM | TGI [45]: > 100 µM | TGI [46]: > 100 µM | TGI [47]: > 100 µM | TGI [48]: > 100 µM | TGI [49]: > 100 µM | TGI [50]: 91.8 µM | TGI [52]: > 100 µM | TGI [53]: 71.4 µM | TGI [54]: > 100 µM | TGI [55]: > 100 µM | TGI [56]: 63.9 µM

O=C(O)c1cccc2cccc(-c3c4ccc(=O)cc-4oc4cc(O)ccc34)c12
TGI [1]: > 100 µM | TGI [2]: > 100 µM | TGI [3]: > 100 µM | TGI [4]: 37.2 µM | TGI [5]: > 100 µM | TGI [7]: > 100 µM | TGI [8]: > 100 µM | TGI [9]: > 100 µM | TGI [10]: > 100 µM | TGI [11]: > 100 µM | TGI [12]: > 100 µM | TGI [13]: > 100 µM | TGI [14]: > 100 µM | TGI [15]: > 100 µM | TGI [16]: > 100 µM | TGI [17]: > 100 µM | TGI [18]: > 100 µM | TGI [19]: > 100 µM | TGI [20]: > 100 µM | TGI [21]: > 100 µM | TGI [22]: > 100 µM | TGI [23]: > 100 µM | TGI [24]: > 100 µM | TGI [25]: > 100 µM | TGI [26]: > 100 µM | TGI [27]: > 100 µM | TGI [28]: > 100 µM | TGI [29]: > 100 µM | TGI [30]: > 100 µM | TGI [31]: > 100 µM | TGI [32]: > 100 µM | TGI [33]: > 100 µM | TGI [34]: > 100 µM | TGI [35]: > 100 µM | TGI [36]: > 100 µM | TGI [37]: > 100 µM | TGI [38]: > 100 µM | TGI [40]: > 100 µM | TGI [41]: > 100 µM | TGI [42]: > 100 µM | TGI [43]: > 100 µM | TGI [44]: > 100 µM | TGI [45]: > 100 µM | TGI [46]: > 100 µM | TGI [47]: > 100 µM | TGI [48]: > 100 µM | TGI [49]: > 100 µM | TGI [50]: > 100 µM | TGI [51]: > 100 µM | TGI [52]: 54.1 µM | TGI [53]: > 100 µM | TGI [54]: > 100 µM | TGI [55]: > 100 µM | TGI [56]: > 100 µM | TGI [57]: > 100 µM
